These results are taken from US11008572B2, “Methods and compositions for modulating splicing” (SKYHAWK THERAPEUTICS, INC., priority 2017, dated 2021).

Like-named read-outs stand apart in the source and are kept apart here. Where only a bound is given, the exact number is not on record here.

The nature of series [1]: Maximum tolerable dose study. The format is in vivo. The note with it: mice, 3 per group. How it is done:
Survival of mice after administration of SMSMs after 10 or 11 days was assessed.
Tolerance of the drug treatments was determined by measuring the weight of the mice during the period of drug administration. Body weight was measured prior to tumor inoculation and prior to the treatment administration and then daily. The changes in the final weight of the mice for the SMSM treatments were determined.

Another series relates to A-673 cells. The experiment in a line: Cell viability, crystal violet staining. The class given is cell-based. The note with it: Homo sapiens. Summed up:
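Readout is absorbance at 570 nm of crystal violet, taken up in 0.1 M sodium citrate in 50% ethanol after staining with 0.5% dye in 25% methanol. Plates held 5×10^3 cells per well, and compounds were added one day after seeding for 72 hours. Data are relative to vehicle, mean±SE.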

The subject of the next series is A673 cells. Kind of series: Dose-response cell proliferation, crystal violet assay, 72 h. The note with it: ratio of IC50 in NHDF cells to IC50 in A673 cells. The class given is cell-based. How it is done: Small molecule splicing modulators were tested in a dose-response assay using A673 cells and NHDF cells.
A673 cells or NHDF cells were first plated in 96-well plastic tissue culture plates (10,000 cells per well). The cells were treated with vehicle alone (DMSO), or increasing concentrations of SMSM compounds for 72 h. Following treatment, cell proliferation was determined using a crystal violet assay. The relative cell proliferation at each concentration was determined.

Series [2] in a line: Splicing (IC50), Example 22. The format is cell-based. The note with it: spliced gene and cells not stated. The procedure: A-673 cell viability […], splicing (IC50) and brain AUC/Plasma AUC of SMSMs were determined. As shown in the tables below SMSMs had high CNS exposure.
Series [3] relates to FOXM1^A2 mRNA and FOXM1^BC mRNA. Kind of series: Splicing assay (FOXM1), qPCR of isoform mRNAs. The format is cell-based. To be noted: for EC50: read-out: Splice EC50 (nM) FoxM1 A mRNA increase (exon excluded). In short, it runs like this:
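RT-qPCR read-out after 24 h compound exposure at 37° C., 0.2% DMSO, top dose 10 μM with 4-fold 8-point dilutions, 20,000 cells per well. Copy numbers from plasmid standard curves, PPIA-normalized, expressed as isoform ratio relative to DMSO.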

The mark [4] stands for this setting: A673, cell viability, read-out: A-673 IC50 (nM) Cell viability.
Where [5] appears, read: A673, read-out: A-673 cell viability (IC50).
Setting [6] is: FoxM1 BC mRNA decrease (exon included), read-out: Splice IC50 (nM) FoxM1 BC mRNA decrease (exon included).
The mark [7] stands for this setting: Homo sapiens, A673, 24 h, A-673 cells, 24 hours, table does not say EC50 or IC50, read-out: FOXM1.
Setting [8] is: Homo sapiens, A-375, 24 h, A-375 cells, 24 hours, table does not say EC50 or IC50, read-out: FOXM1.
Setting [9] is: Homo sapiens, Hep3B, 24 h, Hep-3B cells, 24 hours, table does not say EC50 or IC50, read-out: FOXM1.
Where [10] appears, read: Homo sapiens, K562, 24 h, K-562 cells, 24 hours, table does not say EC50 or IC50, read-out: FOXM1.
Where [11] appears, read: Homo sapiens, MDA-MB-468, 24 h, MDA-MB-468 cells, 24 hours, table does not say EC50 or IC50, read-out: FOXM1.
Where [12] appears, read: Homo sapiens, NCI-H358, 24 h, NCI-H358 cells, 24 hours, table does not say EC50 or IC50, read-out: FOXM1.
[13] abbreviates: Homo sapiens, PANC-1, 24 h, PANC-1 cells, 24 hours, table does not say EC50 or IC50, read-out: FOXM1.
[14] abbreviates: Homo sapiens, PC-3, 24 h, PC-3 cells, 24 hours, table does not say EC50 or IC50, read-out: FOXM1.
The mark [15] stands for this setting: Homo sapiens, U-87 MG, 24 h, U-87MG cells, 24 hours, table does not say EC50 or IC50, read-out: FOXM1.

For the compound `CN(c1ccc(-c2cc(F)c(-c3cn[nH]c3)cc2O)nn1)[C@H]1C[C@]2(C)CC[C@](C)(C1)N2` [compound 167, 2-(6-(((1R,3s,5S)-1,5-dimethyl-8-azabicyclo[3.2.1]octan-3-yl)(methyl)amino)pyridazin-3-yl)-4-fluoro-5-(1H-pyrazol-4-yl)phenol], the Outcome result in series [1] (IP 0.1 mg/kg BIDx12), in series [1] (IP 0.3 mg/kg BIDx12), in series [1] (IP 1 mg/kg QDx12) and in series [1] (PO 5 mg/kg QDx12) was “All survived” each time. In addition, the IC50 is less than 10 nM in the series on A-673 cells (setting [4]); less than 0.5 nM in the series with A-673 cells (setting [5]); less than 0.001 µM in series [2]; less than 10 nM in series [3] (setting [6]); less than 1 nM in series [3] (setting [7]); less than 1 nM in series [3] (setting [8]). Further, the IC50 in series [3] (setting [9]) was 11 to 100 nM; in series [3] (setting [10]) it was 1 to 10 nM; in series [3] (setting [11]), 1 to 10 nM; in series [3] (setting [12]), less than 1 nM; in series [3] (setting [13]) it was 11 to 100 nM; in series [3] (setting [14]) it was 11 to 100 nM. Further, the IC50 in series [3] (setting [15]) lay within 11 to 100 nM. Further, the “Ratio NHDF/A673 IC50” value in the series with A673 cells was >2,500. Moreover, the EC50 in series [3] is less than 10 nM.
`CN(c1ccc(-c2ccc(-c3ccn(C)c(=O)c3)cc2O)nn1)[C@H]1C[C@]2(C)CC[C@](C)(C1)N2` [compound 168, 4-(4-(6-(((1R,3s,5S)-1,5-dimethyl-8-azabicyclo[3.2.1]octan-3-yl)(methyl)amino)pyridazin-3-yl)-3-hydroxyphenyl)-1-methylpyridin-2(1H)-one]: the IC50 in the series on A-673 cells (setting [4]) was less than 10 nM; in the series on A-673 cells (setting [5]), not above 5 nM; in series [2] it was less than 0.001 µM; in series [3] (setting [6]) it was less than 10 nM; in series [3] (setting [7]) it was 1 to 10 nM; in series [3] (setting [8]), 1 to 10 nM. Besides, the IC50 was 101 to 200 nM in series [3] (setting [9]); 11 to 100 nM in series [3] (setting [10]); 11 to 100 nM in series [3] (setting [11]); 1 to 10 nM in series [3] (setting [12]); 101 to 200 nM in series [3] (setting [13]); 11 to 100 nM in series [3] (setting [14]). For the same compound, in series [3] (setting [15]), the IC50 lay in the range of 11 to 100 nM. In the series on A673 cells, the “Ratio NHDF/A673 IC50” value was more than 500. Further, the EC50 in series [3] was more than 1000 nM.
